IC50 data for 32 molecules are collected here from US11434234B2, “Methods and agents for treating disease” (ANGION BIOMEDICA CORP., priority 2014, dated 2022).

For this assay, the target named is T1, human CYP11B2 (Homo sapiens, UniProt P19099).
T1 construct: expressed in transfected cells; host or cells: V79 Chinese hamster cells
T1 sequence (P19099 25-503): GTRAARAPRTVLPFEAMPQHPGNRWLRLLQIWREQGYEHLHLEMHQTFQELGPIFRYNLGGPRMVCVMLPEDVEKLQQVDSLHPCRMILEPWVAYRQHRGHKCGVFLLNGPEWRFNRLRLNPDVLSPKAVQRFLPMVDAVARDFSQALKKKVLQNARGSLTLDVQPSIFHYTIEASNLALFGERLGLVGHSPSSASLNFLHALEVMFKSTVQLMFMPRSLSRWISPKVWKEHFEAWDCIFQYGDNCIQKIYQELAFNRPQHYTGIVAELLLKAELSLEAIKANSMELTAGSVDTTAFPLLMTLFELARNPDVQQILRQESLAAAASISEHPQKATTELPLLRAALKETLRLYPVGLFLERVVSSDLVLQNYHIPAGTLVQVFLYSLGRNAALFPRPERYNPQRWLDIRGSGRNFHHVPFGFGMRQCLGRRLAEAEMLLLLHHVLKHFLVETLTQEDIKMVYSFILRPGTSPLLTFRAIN
Put plainly: Aldosterone inhibitory activity in V79 cells expressing human CYP11B2. It is filed as cell-based. The conditions noted are these: V79 Chinese hamster cells stably transfected with human CYP11B2; substrate 11-deoxycorticosterone 100 nM; read-out: IC50, inhibition of the production of aldosterone. On the procedure:
For the determination of aldosterone inhibitory activity, tests were carried out using V79 Chinese hamster cells stably transfected with human CYP11B2 or CYP11B1 and using assay protocols as described in Ehmer P B, Bureik M, Bernhardt R, Muller U, Hartmann R W. Development of a test system for inhibitors of human aldosterone synthase (CYP11B2): screening in fission yeast and evaluation of selectivity in V79 cells. J. Steroid Biochem. Mol. Biol. 2002 June; 81(2):173-9. The concentration of the substrate 11-deoxycorticosterone in the assay was 100 nM.
Consider `COc1ccncc1C(O)(c1nc2cccc(Br)c2s1)C(C)C` (centres unmarked) [1-(7-bromobenzo[d]thiazol-2-yl)-1-(4-methoxypyridin-3-yl)-2-methylpropan-1-ol], for which the 50% inhibitory concentration (IC50) was < 1000 nM.

For the molecule `CCOc1ccncc1C(O)(c1nc2cccc(Br)c2s1)C(C)C` (centres unmarked) [Example 1, 1-(7-bromobenzo[d]thiazol-2-yl)-1-(4-ethoxypyridin-3-yl)-2-methylpropan-1-ol], the IC50 is < 1000 nM.

For `CCCC(O)(c1cncc(OC)c1)c1nc2ccc(F)cc2s1` (centres unmarked) [Example 20, 1-(6-fluorobenzo[d]thiazol-2-yl)-1-(5-methoxypyridin-3-yl)butan-1-ol], the concentration for half-maximal inhibition (IC50) was < 1000 nM.

For `CCCC(O)(c1nc2cccc(Br)c2s1)c1cnccc1OC` (centres unmarked) [Example 24, 1-(7-bromobenzo[d]thiazol-2-yl)-1-(4-methoxypyridin-3-yl)butan-1-ol], the half-maximal inhibitory concentration (IC50) was < 1000 nM.

For the molecule `COc1ccncc1C(O)(c1nc2ccc(Br)cc2s1)C(C)C` (centres unmarked) [Example 25, 1-(6-bromobenzo[d]thiazol-2-yl)-1-(4-methoxypyridin-3-yl)-2-methylpropan-1-ol], the half-inhibitory concentration (IC50) is < 1000 nM.

In the case of `COc1ccncc1C(O)c1nc2ccc(Br)cc2s1` (centres unmarked) [Example 26, (6-bromobenzo[d]thiazol-2-yl)(4-methoxypyridin-3-yl)methanol], the 50% inhibitory concentration (IC50) is < 1000 nM.

On to `COc1ccncc1C(O)c1nc2cccc(Br)c2s1` (centres unmarked) [Example 27, (7-bromobenzo[d]thiazol-2-yl)(4-methoxypyridin-3-yl)methanol], for which the IC50 is < 1000 nM.

For the molecule `CCCC(O)(c1nc2ccc([N+](=O)[O-])cc2s1)c1cnccc1OC` (centres unmarked) [Example 28, 1-(4-methoxypyridin-3-yl)-1-(6-nitrobenzo[d]thiazol-2-yl)butan-1-ol], the half-maximal inhibitory concentration (IC50) was < 1000 nM.

With `CCCC(O)(c1nc2ccc(Br)cc2s1)c1cnccc1OCC` (centres unmarked) [Example 29, 1-(6-bromobenzo[d]thiazol-2-yl)-1-(4-ethoxypyridin-3-yl)butan-1-ol], the IC50 was < 1000 nM.

For `CCCC(O)(c1nc2cccc(Br)c2s1)c1cnccc1OCC` (centres unmarked) [Example 30, 1-(7-bromobenzo[d]thiazol-2-yl)-1-(4-ethoxypyridin-3-yl)butan-1-ol], the IC50 was < 1000 nM.

As to `COc1ccncc1C(O)(c1nc2ccccc2s1)C(C)(C)C` (centres unmarked) [Example 31, 1-(benzo[d]thiazol-2-yl)-1-(4-methoxypyridin-3-yl)-2,2-dimethylpropan-1-ol], the IC50 is < 1000 nM.

Take `CCOc1ccncc1C(O)(c1nc2ccc(Br)cc2s1)C(C)C` (centres unmarked) [Example 32, 1-(6-bromobenzo[d]thiazol-2-yl)-1-(4-ethoxypyridin-3-yl)-2-methylpropan-1-ol]: the concentration for half-maximal inhibition (IC50) is < 1000 nM.

Regarding `CC(C)c1ccncc1C(O)(c1nc2ccc(Br)cc2s1)C(C)C` (centres unmarked) [Example 33, 1-(6-bromobenzo[d]thiazol-2-yl)-1-(4-isopropylpyridin-3-yl)-2-methylpropan-1-ol], the concentration for half-maximal inhibition (IC50) was < 1000 nM.

Regarding `CC(C)c1ccncc1C(O)(c1nc2cccc(Br)c2s1)C(C)C` (centres unmarked) [Example 34, 1-(7-bromobenzo[d]thiazol-2-yl)-1-(4-isopropylpyridin-3-yl)-2-methylpropan-1-ol], the half-inhibitory concentration (IC50) is < 1000 nM.

Turning to `CC(C)Oc1ccncc1C(O)(c1nc2ccc(Br)cc2s1)C(C)C` (centres unmarked) [Example 35, 1-(6-bromobenzo[d]thiazol-2-yl)-1-(4-isopropoxypyridin-3-yl)-2-methylpropan-1-ol], the IC50 was < 1000 nM.

For the molecule `CC(C)Oc1ccncc1C(O)(c1nc2cccc(Br)c2s1)C(C)C` (centres unmarked) [Example 36, 1-(7-bromobenzo[d]thiazol-2-yl)-1-(4-isopropoxypyridin-3-yl)-2-methylpropan-1-ol], the IC50 is < 1000 nM.

As for `CCCC(O)(c1nc2ccc(Br)cc2s1)c1cnccc1C(C)C` (centres unmarked) [Example 37, 1-(6-bromobenzo[d]thiazol-2-yl)-1-(4-isopropylpyridin-3-yl)butan-1-ol], the half-inhibitory concentration (IC50) was < 1000 nM.

Regarding `CCCC(O)(c1nc2cccc(Br)c2s1)c1cnccc1C(C)C` (centres unmarked) [Example 38, 1-(7-bromobenzo[d]thiazol-2-yl)-1-(4-isopropylpyridin-3-yl)butan-1-ol], the 50% inhibitory concentration (IC50) was < 1000 nM.

In the case of `CCCC(O)(c1nc2ccc(Cl)cc2s1)c1cnccc1OCC` (centres unmarked) [Example 39, 1-(6-chlorobenzo[d]thiazol-2-yl)-1-(4-ethoxypyridin-3-yl)butan-1-ol], the IC50 is < 1000 nM.

Turning to `CCCC(O)(c1nc2ccc([N+](=O)[O-])cc2s1)c1cnccc1OCC` (centres unmarked) [Example 40, 1-(4-ethoxypyridin-3-yl)-1-(6-nitrobenzo[d]thiazol-2-yl)butan-1-ol], the IC50 is < 1000 nM.

As for `CCCC(O)(c1nc2ccc(F)cc2s1)c1cnccc1OCC` (centres unmarked) [Example 41, 1-(4-ethoxypyridin-3-yl)-1-(6-fluorobenzo[d]thiazol-2-yl)butan-1-ol], the IC50 is < 1000 nM.

With `CCCC(O)(c1nc2cccc(Cl)c2s1)c1cnccc1OCC` (centres unmarked) [Example 42, 1-(7-chlorobenzo[d]thiazol-2-yl)-1-(4-ethoxypyridin-3-yl)butan-1-ol], the concentration for half-maximal inhibition (IC50) is < 1000 nM.

On to `CCCC(O)(c1nc2c(F)ccc(F)c2s1)c1cnccc1OCC` (centres unmarked) [Example 43, 1-(4,7-difluorobenzo[d]thiazol-2-yl)-1-(4-ethoxypyridin-3-yl)butan-1-ol], for which the half-maximal inhibitory concentration (IC50) was < 1000 nM.

As for `CCCC(O)(c1nc2cccc(OC)c2s1)c1cnccc1OCC` (centres unmarked) [Example 44, 1-(4-ethoxypyridin-3-yl)-1-(7-methoxybenzo[d]thiazol-2-yl)butan-1-ol], the IC50 is < 1000 nM.

As for `CCCC(O)(c1nc2ccc(C(F)(F)F)cc2s1)c1cnccc1OCC` (centres unmarked) [Example 45, 1-(4-ethoxypyridin-3-yl)-1-(6-(trifluoromethyl)benzo[d]thiazol-2-yl)butan-1-ol], the IC50 was < 1000 nM.

For the molecule `CCCC(O)(c1nc2ccc(OC(F)(F)F)cc2s1)c1cnccc1OCC` (centres unmarked) [Example 46, 1-(4-ethoxypyridin-3-yl)-1-(6-(trifluoromethoxy)benzo[d]thiazol-2-yl)butan-1-ol], the 50% inhibitory concentration (IC50) is < 1000 nM.

Regarding `CCCC(O)(c1nc2cccc(C(F)(F)F)c2s1)c1cnccc1OCC` (centres unmarked) [Example 47, 1-(4-ethoxypyridin-3-yl)-1-(7-(trifluoromethyl)benzo[d]thiazol-2-yl)butan-1-ol], the IC50 was < 1000 nM.

Regarding `CCCC(O)(c1nc2ccc(OC)cc2s1)c1cnccc1OCC` (centres unmarked) [Example 48, 1-(4-ethoxypyridin-3-yl)-1-(6-methoxybenzo[d]thiazol-2-yl)butan-1-ol], the concentration for half-maximal inhibition (IC50) was < 1000 nM.

As to `CCCC(O)(c1nc2ccc(OC(F)(F)F)cc2s1)c1cnccc1OC(C)C` (centres unmarked) [Example 49, 1-(4-isopropoxypyridin-3-yl)-1-(6-(trifluoromethoxy)benzo[d]thiazol-2-yl)butan-1-ol], the IC50 is < 1000 nM.

On to `CCCC(O)(c1nc2cc(Cl)c(Cl)cc2s1)c1cnccc1OCC` (centres unmarked) [Example 50, 1-(5,6-dichlorobenzo[d]thiazol-2-yl)-1-(4-ethoxypyridin-3-yl)butan-1-ol], for which the IC50 was < 1000 nM.

As to `CCCOc1ccncc1C(O)(CCC)c1nc2ccc(OC(F)(F)F)cc2s1` (centres unmarked) [Example 51, 1-(4-propoxypyridin-3-yl)-1-(6-(trifluoromethoxy)benzo[d]thiazol-2-yl)butan-1-ol], the IC50 was < 1000 nM.

For the molecule `CCCC(O)(c1nc2cc3c(cc2s1)OC(F)(F)O3)c1cnccc1OCC` (centres unmarked) [Example 52, 1-(2,2-difluoro-[1,3]dioxolo[4′,5′:4,5]benzo[1,2-d]thiazol-6-yl)-1-(4-ethoxypyridin-3-yl)butan-1-ol], the half-maximal inhibitory concentration (IC50) was < 1000 nM.
